Molecular target: cloned human NR1/NR2B ion channels (Homo sapiens (Human), UniProt Q05586+Q13224)
Experiment: HNR2BC: effects of test articles on cloned human NR1/NR2B ion channels expressed in mammalian cells (FLIPR calcium flux)
Assay type: cell-based
Conditions: cloned human NR1/NR2B ion channels, Table 5
How it was run: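 In a stable Tet-On-induced cell line expressing human GluN1/GluN2B, Calcium 5-loaded cells were preincubated 5 min with compound, then stimulated 5 min with glutamate at ~EC80 plus 10 μM glycine, in pH 7.4 HEPES buffer. FLIPR calcium fluorescence was normalized to control wells.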

Chain of cloned human NR1/NR2B ion channels (Q13224 27-1484, other chains not shown): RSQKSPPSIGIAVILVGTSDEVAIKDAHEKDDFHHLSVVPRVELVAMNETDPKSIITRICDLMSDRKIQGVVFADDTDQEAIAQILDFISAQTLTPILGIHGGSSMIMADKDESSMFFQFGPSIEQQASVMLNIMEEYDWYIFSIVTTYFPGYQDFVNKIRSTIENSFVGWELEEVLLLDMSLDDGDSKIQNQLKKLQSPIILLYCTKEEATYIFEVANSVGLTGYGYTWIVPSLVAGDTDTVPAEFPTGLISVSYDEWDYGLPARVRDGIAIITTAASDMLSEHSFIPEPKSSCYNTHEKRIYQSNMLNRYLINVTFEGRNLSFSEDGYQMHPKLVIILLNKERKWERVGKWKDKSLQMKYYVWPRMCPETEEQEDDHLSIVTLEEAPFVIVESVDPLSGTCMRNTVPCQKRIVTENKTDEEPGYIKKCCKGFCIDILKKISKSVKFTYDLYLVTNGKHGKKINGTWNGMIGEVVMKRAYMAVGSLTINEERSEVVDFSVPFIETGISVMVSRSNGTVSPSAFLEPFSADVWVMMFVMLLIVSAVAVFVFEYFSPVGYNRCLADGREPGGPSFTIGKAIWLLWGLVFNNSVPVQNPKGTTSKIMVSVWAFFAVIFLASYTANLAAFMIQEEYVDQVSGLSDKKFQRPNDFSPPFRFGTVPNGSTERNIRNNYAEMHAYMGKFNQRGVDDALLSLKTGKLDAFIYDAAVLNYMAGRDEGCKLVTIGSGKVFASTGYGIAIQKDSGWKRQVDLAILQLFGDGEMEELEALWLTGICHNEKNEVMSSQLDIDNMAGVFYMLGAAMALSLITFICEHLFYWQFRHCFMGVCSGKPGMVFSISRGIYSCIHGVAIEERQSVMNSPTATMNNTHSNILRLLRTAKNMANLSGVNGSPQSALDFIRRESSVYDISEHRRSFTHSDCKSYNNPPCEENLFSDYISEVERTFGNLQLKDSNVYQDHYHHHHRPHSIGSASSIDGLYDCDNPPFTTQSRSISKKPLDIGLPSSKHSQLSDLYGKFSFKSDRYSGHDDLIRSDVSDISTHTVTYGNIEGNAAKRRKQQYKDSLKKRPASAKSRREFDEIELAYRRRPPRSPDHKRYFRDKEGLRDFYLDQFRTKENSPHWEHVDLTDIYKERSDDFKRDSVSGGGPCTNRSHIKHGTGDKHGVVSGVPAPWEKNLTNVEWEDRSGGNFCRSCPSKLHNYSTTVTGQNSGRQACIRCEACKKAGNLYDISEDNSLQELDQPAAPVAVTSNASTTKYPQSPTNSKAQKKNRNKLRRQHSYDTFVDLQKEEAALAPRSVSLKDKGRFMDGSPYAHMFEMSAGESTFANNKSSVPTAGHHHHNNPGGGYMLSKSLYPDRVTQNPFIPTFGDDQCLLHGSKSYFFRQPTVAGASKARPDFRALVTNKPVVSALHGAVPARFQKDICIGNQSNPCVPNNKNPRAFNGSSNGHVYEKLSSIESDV

SMILES | IC50 [nM]
O=C(Cn1ccc2ncc(-c3sccc3Cl)cc21)N1CCC1 [Example 403, 1-(Azetidin-1-yl)-2-[6-(3-chloro-2-thienyl)pyrrolo[3,2-b]pyridin-1-yl]ethanone] | 100
Cc1ncc(-c2cnc3ccn(CC(=O)N4CCC4)c3c2)s1 [Example 404, 1-(Azetidin-1-yl)-2-[6-(2-methylthiazol-5-yl)pyrrolo[3,2-b]pyridin-1-yl]ethanone] | 31.6
O=C(Cn1ccc2ncc(-c3cncs3)cc21)N1CCC1 [Example 405, 1-(Azetidin-1-yl)-2-(6-thiazol-5-ylpyrrolo[3,2-b]pyridin-1-yl)ethanone] | 10000
Cc1csc(-c2cnc3c(Cl)cn(CC(=O)N4CCC4)c3c2)c1 [Example 407, 1-(Azetidin-1-yl)-2-[3-chloro-6-(4-methyl-2-thienyl)pyrrolo[3,2-b]pyridin-1-yl]ethanone] | 6310
CCc1ccc(-c2cnc3c(Cl)cn(CC(=O)N4CCC4)c3c2)s1 [Example 408, 1-(Azetidin-1-yl)-2-[3-chloro-6-(5-ethyl-2-thienyl)pyrrolo[3,2-b]pyridin-1-yl]ethanone] | 39.8
O=C(Cn1cc(Cl)c2ncc(-c3cccs3)cc21)N1CCC1 [Example 409, 1-(Azetidin-1-yl)-2-[3-chloro-6-(2-thienyl)pyrrolo[3,2-b]pyridin-1-yl]ethanone] | 200
Cc1ccc(-c2cnc3c(Cl)cn(CC(=O)N4CCC4)c3c2)s1 [Example 410, 1-(Azetidin-1-yl)-2-[3-chloro-6-(5-methyl-2-thienyl)pyrrolo[3,2-b]pyridin-1-yl]ethanone] | 316
CN(CC(F)(F)F)C(=O)Cn1ccc2ncc(-c3ccc(F)cc3)cc21 [Example 411, 2-[6-(4-Fluorophenyl)pyrrolo[3,2-b]pyridin-1-yl]-N-methyl-N-(2,2,2-trifluoroethyl)acetamide] | 25.1
Cc1ccc(-c2cnc3c(Cl)cn(CC(=O)N4CC(F)C4)c3c2)s1 [Example 412, 2-[3-Chloro-6-(5-methyl-2-thienyl)pyrrolo[3,2-b]pyridin-1-yl]-1-(3-fluoroazetidin-1-yl)ethanone] | 7940
O=C(Cn1cc(Cl)c2ncc(-c3ccc(Cl)s3)cc21)N1CC(F)C1 [Example 413, 2-[3-Chloro-6-(5-chloro-2-thienyl)pyrrolo[3,2-b]pyridin-1-yl]-1-(3-fluoroazetidin-1-yl)ethanone] | 50.1
CN(C)C(=O)Cn1cc(Cl)c2ncc(-c3cc(Cl)cs3)cc21 [Example 414, 2-[3-Chloro-6-(4-chloro-2-thienyl)pyrrolo[3,2-b]pyridin-1-yl]-N,N-dimethyl-acetamide] | 39.8
Cc1cc(-c2cnc3ccn(CC(=O)N(C)CC(F)(F)F)c3c2)ccc1F [Example 415, 2-[6-(4-Fluoro-3-methyl-phenyl)pyrrolo[3,2-b]pyridin-1-yl]-N-methyl-N-(2,2,2-trifluoroethyl)acetamide] | 63.1
Cc1csc(-c2cnc3c(Cl)cn(CC(=O)N4CC(F)C4)c3c2)c1 [Example 416, 2-[3-Chloro-6-(4-methyl-2-thienyl)pyrrolo[3,2-b]pyridin-1-yl]-1-(3-fluoroazetidin-1-yl)ethanone] | 2510
O=C(Cn1cc(Cl)c2ncc(-c3cccs3)cc21)N1CC(F)C1 [Example 417, 2-[3-Chloro-6-(2-thienyl)pyrrolo[3,2-b]pyridin-1-yl]-1-(3-fluoroazetidin-1-yl)ethanone] | 63.1
O=C(Cn1cc(Cl)c2ncc(-c3cc(Cl)cs3)cc21)N1CC(F)C1 [Example 418, 2-[3-Chloro-6-(4-chloro-2-thienyl)pyrrolo[3,2-b]pyridin-1-yl]-1-(3-fluoroazetidin-1-yl)ethanone] | 501
CCN(C)C(=O)Cn1ccc2ncc(-c3ccc(F)cc3)cc21 [Example 419, N-Ethyl-2-[6-(4-fluorophenyl)pyrrolo[3,2-b]pyridin-1-yl]-N-methyl-acetamide] | 63.1
CN(C)C(=O)Cn1cc(Cl)c2ncc(-c3cccs3)cc21 [Example 420, 2-[3-Chloro-6-(2-thienyl)pyrrolo[3,2-b]pyridin-1-yl]-N,N-dimethyl-acetamide] | 631
CCc1ccc(-c2cnc3c(Cl)cn(CC(=O)N(C)C)c3c2)s1 [Example 421, 2-[3-Chloro-6-(5-ethyl-2-thienyl)pyrrolo[3,2-b]pyridin-1-yl]-N,N-dimethyl-acetamide] | 631
O=C(Cn1cc(Cl)c2ncc(-c3cc(Cl)cs3)cc21)N1CCC1 [Example 422, 1-(Azetidin-1-yl)-2-[3-chloro-6-(4-chloro-2-thienyl)pyrrolo[3,2-b]pyridin-1-yl]ethanone] | 200
CN(C)C(=O)Cn1cc(Cl)c2ncc(-c3ccc(Cl)s3)cc21 [Example 423, 2-[3-Chloro-6-(5-chloro-2-thienyl)pyrrolo[3,2-b]pyridin-1-yl]-N,N-dimethyl-acetamide] | 39.8
CCc1ccc(-c2cnc3c(Cl)cn(CC(=O)N4CC(F)C4)c3c2)s1 [Example 424, 2-[3-Chloro-6-(5-ethyl-2-thienyl)pyrrolo[3,2-b]pyridin-1-yl]-1-(3-fluoroazetidin-1-yl)ethanone] | 31.6

SMILES | IC50 [nM]
CN(C)C(=O)Cn1ccc2ncc(-c3cccc(C(F)(F)F)c3F)cc21 [Example 425, 2-[6-[2-Fluoro-3-(trifluoromethyl)phenyl]pyrrolo[3,2-b]pyridin-1-yl]-N,N-dimethyl-acetamide] | 316
Cc1cc(-c2cnc3ccn(CC(=O)N(C)C)c3c2)c(C)s1 [Example 427, 2-[6-(2,5-Dimethyl-3-thienyl)pyrrolo[3,2-b]pyridin-1-yl]-N,N-dimethyl-acetamide] | 31.6
Cc1sc(C)c(-c2cnc3ccn(CC(=O)N(C)C)c3c2)c1C [Example 428, N,N-Dimethyl-2-[6-(2,4,5-trimethyl-3-thienyl)pyrrolo[3,2-b]pyridin-1-yl]acetamide] | 100
CN(C)C(=O)Cn1ccc2ncc(-c3ccc(F)cc3)cc21 [Example 430, 2-[6-(4-Fluorophenyl)pyrrolo[3,2-b]pyridin-1-yl]-N,N-dimethyl-acetamide] | 63.1
CN(C)C(=O)Cn1ccc2ncc(-c3ccccc3F)cc21 [Example 431, 2-[6-(2-Fluorophenyl)pyrrolo[3,2-b]pyridin-1-yl]-N,N-dimethyl-acetamide] | 251
Cc1cccc(-c2cnc3ccn(CC(=O)N(C)C)c3c2)c1F [Example 432, 2-[6-(2-Fluoro-3-methyl-phenyl)pyrrolo[3,2-b]pyridin-1-yl]-N,N-dimethyl-acetamide] | 794
CN(C)C(=O)Cn1ccc2ncc(-c3ccccc3)cc21 [Example 433, N,N-Dimethyl-2-(6-phenylpyrrolo[3,2-b]pyridin-1-yl)acetamide] | 25.1
CN(C)C(=O)Cn1ccc2ncc(-c3ccc(F)c(C(F)(F)F)c3)cc21 [Example 436, 2-[6-[4-Fluoro-3-(trifluoromethyl)phenyl]pyrrolo[3,2-b]pyridin-1-yl]-N,N-dimethyl-acetamide] | 79.4
CN(C)C(=O)Cn1ccc2ncc(-c3ccc(F)c(F)c3F)cc21 [Example 437, N,N-Dimethyl-2-[6-(2,3,4-trifluorophenyl)pyrrolo[3,2-b]pyridin-1-yl]acetamide] | 316
CN(C)C(=O)Cn1ccc2ncc(-c3csc(Cl)c3)cc21 [Example 439, 2-[6-(5-Chloro-3-thienyl)pyrrolo[3,2-b]pyridin-1-yl]-N,N-dimethyl-acetamide] | 50.1
CN(C)C(=O)Cn1ccc2ncc(-c3cc(Cl)sc3Cl)cc21 [Example 440, 2-[6-(2,5-Dichloro-3-thienyl)pyrrolo[3,2-b]pyridin-1-yl]-N,N-dimethyl-acetamide] | 126
Cc1ccc(F)c(-c2cnc3ccn(CC(=O)N(C)C)c3c2)c1F [Example 444, 2-[6-(2,6-Difluoro-3-methyl-phenyl)pyrrolo[3,2-b]pyridin-1-yl]-N,N-dimethyl-acetamide] | 631
Cc1ccc(F)c(-c2cnc3ccn(CC(=O)N(C)C)c3c2)c1 [Example 445, 2-[6-(2-Fluoro-5-methyl-phenyl)pyrrolo[3,2-b]pyridin-1-yl]-N,N-dimethyl-acetamide] | 398
O=C(Cn1ccc2ncc(-c3cccc(C(F)F)c3)cc21)N1CCC1 [Example 446, 1-(Azetidin-1-yl)-2-[6-[3-(difluoromethyl)phenyl]pyrrolo[3,2-b]pyridin-1-yl]ethanone] | 100
Cc1c(F)ccc(-c2cnc3ccn(CC(=O)N(C)C)c3c2)c1F [Example 447, 2-[6-(2,4-Difluoro-3-methyl-phenyl)pyrrolo[3,2-b]pyridin-1-yl]-N,N-dimethyl-acetamide] | 20
CN(C)C(=O)Cn1ccc2ncc(-c3cccc(Cl)c3F)cc21 [Example 448, 2-[6-(3-Chloro-2-fluoro-phenyl)pyrrolo[3,2-b]pyridin-1-yl]-N,N-dimethyl-acetamide] | 20
CCc1cccc(-c2cnc3ccn(CC(=O)N(C)C)c3c2)c1 [Example 449, 2-[6-(3-Ethylphenyl)pyrrolo[3,2-b]pyridin-1-yl]-N,N-dimethyl-acetamide] | 63.1
CN(C)C(=O)Cn1ccc2ncc(-c3cccc(F)c3)cc21 [Example 450, 2-[6-(3-Fluorophenyl)pyrrolo[3,2-b]pyridin-1-yl]-N,N-dimethyl-acetamide] | 39.8
Cc1cccc(-c2cnc3ccn(CC(=O)N4CCC4)c3c2)c1F [Example 451, 1-(Azetidin-1-yl)-2-[6-(2-fluoro-3-methyl-phenyl)pyrrolo[3,2-b]pyridin-1-yl]ethanone] | 50.1
Cc1c(F)ccc(-c2cnc3ccn(CC(=O)N4CCC4)c3c2)c1F [Example 452, 1-(Azetidin-1-yl)-2-[6-(2,4-difluoro-3-methyl-phenyl)pyrrolo[3,2-b]pyridin-1-yl]ethanone] | 25.1
O=C(Cn1ccc2ncc(-c3cccc(Cl)c3F)cc21)N1CCC1 [Example 453, 1-(Azetidin-1-yl)-2-[6-(3-chloro-2-fluoro-phenyl)pyrrolo[3,2-b]pyridin-1-yl]ethanone] | 25.1

Source: US10377753B2, “Substituted 4-azaindoles and their use as GluN2B receptor modulators” (Janssen Pharmaceutica NV, priority 2015, dated 2019)
